The results in this text go back to patent publication US6638953B2, “Indole derivatives as 5-HT receptor antagonist” (SmithKline Beecham p.l.c., priority 1995, dated 2003).

The structures appear in SMILES notation. Where a name gives a salt, the structure may show the parent alone.

In general, melting point refers to the temperature, or range, at which the solid turns liquid. Compound `COc1cc2c(cc1C(F)(F)F)N(C(=O)Nc1cncc(-c3ccsc3)c1)CC2` [Example 16, 1-[5-(3-Thienyl)-pyrid-3-yl Carbamoyl]-5-methoxy-6-trifluoromethyl Indoline] registered a melting point of 165 to 167 °C. With `COc1cc2c(cc1C(F)(F)F)N(C(=O)Nc1cccc(-c3ccc[nH]3)c1)CC2` [Example 102] the figure was above 240 °C; with `COc1cc2c(cc1C(F)(F)F)N(C(=O)Nc1ccc(Oc3c(C)ccnc3C)nc1)CC2` [Example 156], 218 to 221 °C. With `COc1cc2c(cc1C(F)(F)F)N(C(=O)Nc1ccc(-c3ccccc3)nc1)CC2` [Example 94] the figure was 204 to 207 °C. With `Cc1cc2c(cc1Cl)N(C(=O)Nc1cc(F)c(C)c(-c3cccnc3)c1)CC2` [Example 129] the figure was 233 to 235 °C; with `COc1cc2c(cc1C(F)(F)F)N(C(=O)Nc1cccc(-c3cnc(C)cc3C)c1)CC2` [Example 117], 161 to 162 °C; with `COc1cc2c(cc1C(F)(F)F)N(C(=O)Nc1cccc(-c3ccc(C)nc3)c1)CC2` [Example 112], 228 to 230 °C. `COc1cc2c(cc1C(F)(F)F)N(C(=O)Nc1ccc3c(ccn3-c3cccnc3)c1)CC2` [Example 73, 1-(1-(3-Pyridyl)-5-indolylcarbamoyl)-5-methoxy-6-trifluoromethyl Indoline] yielded a melting point of 202 to 204 °C. Regarding `COc1cc2c(cc1C(F)(F)F)N(C(=O)Nc1ccc(-c3ccncc3)cc1)CC2` [Example 5, 1-[(4-Pyridyl)-4-phenyl Carbamoyl]-5-methoxy-6-trifluoromethyl Indoline], the melting point is above 210 °C. With `O=C(Nc1ccc(F)c(-c2cncnc2)c1)N1CCc2cc(Cl)c(Cl)cc21` [Example 169] the figure was 132 to 135 °C; with `COc1cc2c(cc1C(F)(F)F)N(C(=O)Nc1cc(-c3ccncc3)cc(-c3cccnc3)c1)CC2` [Example 115], 153 to 154 °C; with `COc1cc2c(cc1C(F)(F)F)N(C(=O)Nc1ccc(OCc3cccnc3)cc1)CC2` [Example 138], 215 to 217 °C.

Turning to `COc1cc2c(cc1C(F)(F)F)N(C(=O)Nc1cncc(-c3ccc(F)cc3)c1)CC2` [Example 87], the melting point is above 200 °C. With `COc1cc2c(cc1C(F)(F)F)N(C(=O)Nc1cc(F)c(C)c(N3C=CC=NC3)c1)CC2` [Example 128] the figure was 188 to 189 °C; with `COc1cc2c(cc1C(F)(F)F)N(C(=O)Nc1cccc(-c3ccc(N(C)C)cc3)c1)CC2` [Example 97], 213 to 215 °C; with `COc1cc2c(cc1C(F)(F)F)N(C(=O)Nc1cc(C(C)=O)cc(-c3cccnc3)c1)CC2` [Example 107], 174 to 176 °C. With `Cc1cc2c(cc1Cl)N(C(=O)Nc1cc(F)cc(-c3cnccn3)c1)CC2` [Example 131] the figure was 226 to 227 °C; with `COc1cc2c(cc1C(F)(F)F)N(C(=O)Nc1cncc(-c3ccc[nH]3)c1)CC2` [Example 17, 1-[5-(2-Pyrrolyl)-pyrid-3-yl Carbamoyl]-5-methoxy-6-trifluoromethyl Indoline], 218 to 219 °C. With `COc1cc2c(cc1C(F)(F)F)N(C(=O)Nc1cc(F)cc(-c3cnccn3)c1)CC2` [Example 126] the figure was 230 to 231 °C; with `COc1cc2c(cc1C(F)(F)F)N(C(=O)Nc1cccc(-c3cccnc3C)c1)CC2` [Example 110], 179 to 180 °C; with `COc1cc2c(cc1C(F)(F)F)N(C(=O)Nc1cccc(-c3cccc(CN(C)C)c3)c1)CC2` [Example 99], 185 to 187 °C. In turn, `COc1cc2c(cc1C(F)(F)F)N(C(=O)Nc1ccc(-c3cccnc3)nc1)CC2` [Example 36, 1-[6-(3-Pyridyl)-pyrid-3-ylcarbamoyl]-5-methoxy-6-trifluoromethylindoline] had a melting point above 270 °C.

In turn, `CSc1cc2c(cc1C(F)(F)F)N(C(=O)Nc1cc(F)cc(-c3cccnc3)c1)CC2` (as salt: hydrochloride) [Example 25, 1-(3-Fluoro-5-(pyrid-3-yl)phenylcarbamoyl)5-thiomethyl-6-trifluoromethyl-indoline Hydrochloride] displayed a melting point of 202 to 203 °C.

Take `COc1cc2c(cc1C(F)(F)F)N(C(=O)Nc1cccc(-c3cccnc3)c1)CC2` [Example 83]: the melting point lay in the range of 192 to 193 °C. In turn, `COc1cc2c(cc1C(F)(F)F)N(C(=O)Nc1ccc(Sc3ccncc3)nc1)CC2` [Example 146] displayed a melting point of 204 to 206 °C.

For `COc1cc2c(cc1C(F)(F)F)N(C(=O)Nc1cncc(-c3ccc(F)c(Cl)c3)c1)CC2` [Example 93], the melting point is 113 to 115 °C. Then `COc1cc2c(cc1C(F)(F)F)N(C(=O)Nc1cccc(COc3cccnc3)c1)CC2` [Example 139], with 188 to 190 °C. Then `CSc1cc2c(cc1C(F)(F)F)N(C(=O)Nc1ccc(C(=O)NCc3ccncc3)cc1)CC2` [Example 151], with 138 to 140 °C; and `COc1cc2c(cc1C(F)(F)F)N(C(=O)Nc1cnc(-c3cccnc3)c(C)c1)CC2` [Example 140], with 230 to 232 °C.

Compound `Cc1cc2c(cc1Cl)N(C(=O)Nc1cc(F)cc(-c3cncnc3)c1)CC2` [Example 132] showed a melting point of 222 to 226 °C. Then `COc1cc2c(cc1C(F)(F)F)N(C(=O)Nc1cc(F)cc(-c3cccnn3)c1)CC2` [Example 118], with 230 to 231 °C.

Take `COc1cc2c(cc1C(F)(F)F)N(C(=O)Nc1ccc(Oc3ccccc3)nc1)CC2` [Example 155]: the melting point lay in the range of 202 to 203 °C.

`Cc1cc2c(cc1Cl)N(C(=O)Nc1ccc(F)c(-c3cncnc3)c1)CC2` [Example 171] returned a melting point of 211 to 213 °C. With `COc1cc2c(cc1C(F)(F)F)N(C(=O)Nc1cncc(-c3cccnc3)c1)CC2` [Example 12, 1-[5-(3-Pyridyl)-pyrid-3-yl Carbamoyl]-5-methoxy-6-trifluoromethyl Indoline] the figure was 113 to 114 °C; with `CCc1ccccc1Oc1ccc(NC(=O)N2CCc3cc(OC)c(C(F)(F)F)cc32)cn1` [Example 162], 215 to 220 °C; with `COc1cc2c(cc1C(F)(F)F)N(C(=O)Nc1ccc(Oc3cccnc3Cl)nc1)CC2` [Example 161], 238 to 240 °C. `COc1cc2c(cc1C(F)(F)F)N(C(=O)Nc1cccc(-c3c(C)ccnc3C)c1)CC2` [Example 111] had a melting point of 202 to 204 °C. Then `C=Cc1cc(NC(=O)N2CCc3cc(OC)c(C(F)(F)F)cc32)cc(-c2cccnc2)c1` [Example 104], with 138 to 140 °C; and `COc1cc2c(cc1C(F)(F)F)N(C(=O)Nc1ccc(Oc3ccc(C(N)=O)cc3)nc1)CC2` [Example 163], with 245 to 248 °C.

Turning to `COc1cc2c(cc1C(F)(F)F)N(C(=O)Nc1cccc(-c3noc(CN(C)C)n3)c1)CC2` [Example 100], the melting point fell in the range of 154 to 155 °C. With `COc1cc2c(cc1C(F)(F)F)N(C(=O)Nc1ccc3c(ccn3Cc3cccnc3)c1)CC2` [Example 71, 1-(1-(3-Pyridylmethyl)-5-indolylcarbamoyl)-5-methoxy-6-trifluoromethylindoline] the figure was 243 to 246 °C. Then `COc1cc2c(cc1C(F)(F)F)N(C(=O)Nc1cncc(-c3ccc(C(F)(F)F)cc3)c1)CC2` [Example 13, 1-[5-(4-Trifluoromethylphenyl)-pyrid-3-yl Carbamoyl]-5-methoxy-6-trifluoromethyl Indoline], with 199 to 202 °C; and `COc1cc2c(cc1C(F)(F)F)N(C(=O)Nc1ccc(-n3cccn3)nc1)CC2` [Example 96], with above 225 °C.

In turn, `COc1cc2c(cc1C(F)(F)F)N(C(=O)Nc1ccc(Oc3cnccc3C)nc1)CC2` [Example 82, 5-Methoxy-6-trifluoromethyl-1-[6-(4-methylpyridin-3-yloxy)pyridin-3-ylcarbamoyl]indoline] returned a melting point of 188 to 191 °C. With `COc1cc2c(cc1C(F)(F)F)N(C(=O)Nc1cncc(-c3cc(F)cc(F)c3)c1)CC2` [Example 88] the figure was 226 to 229 °C. With `COc1cc2c(cc1C(F)(F)F)N(C(=O)Nc1cncc(-c3ccc(C)cc3)c1)CC2` [Example 14, 1-[5-(4-Methylphenyl)-pyrid-3-yl Carbamoyl]-5-methoxy-6-trifluoromethyl Indoline] the figure was 190 to 191 °C. With `COc1cc2c(cc1C(F)(F)F)N(C(=O)Nc1cc(OC(F)(F)F)cc(-c3cccnc3)c1)CC2` [Example 122] the figure was 168 to 170 °C; with `COc1cc2c(cc1C(F)(F)F)N(C(=O)Nc1ccc(Sc3cccnc3)nc1)CC2` [Example 67, 5-Methoxy-6-trifluoromethyl-1-[6-(pyridin-3-ylthio)pyridin-3-ylcarbamoyl]indoline], 208 to 210 °C. `CSc1cc2c(cc1C(F)(F)F)N(C(=O)Nc1cccc(C(=O)NCCc3ccccn3)c1)CC2` [Example 153] had a melting point of 92 to 94 °C. Compound `COc1cc2c(cc1C(F)(F)F)N(C(=O)Nc1ccc3c(ccn3Cc3ccncc3)c1)CC2` [Example 72, 1-(1-(4-Pyridylmethyl)-5-indolylcarbamoyl)-5-methoxy-6-trifluoromethylindoline] yielded a melting point of 215 to 218 °C. With `COc1cc2c(cc1C(F)(F)F)N(C(=O)Nc1cccc(-c3cccnc3)c1Cl)CC2` [Example 85] the figure was 214 to 216 °C; with `COc1cc2c(cc1C(F)(F)F)N(C(=O)Nc1cccc(-c3cnc4ccccc4c3)c1)CC2` [Example 86], 240 °C (dec.). With `COc1cc2c(cc1C(F)(F)F)N(C(=O)Nc1cncc(-c3cncnc3)c1)CC2` [Example 130] the figure was 120 to 121 °C; with `COc1cc2c(cc1C(F)(F)F)N(C(=O)Nc1ccc(Oc3cccc(C(F)(F)F)c3)nc1)CC2` [Example 165], 193 to 194 °C; with `Cc1ncccc1Oc1ccc(NC(=O)N2CCc3cc(Br)c(C(F)(F)F)cc32)cn1`, 211 to 213 °C.
